From patent US6869931B1, “Inhibition of angiogenesis by high molecular weight kininogen domain 3 peptide analogs” (Temple University - Of The Commonwealth System of Higher …, priority 1998, dated 2005) come the findings set out here.

Residues, ends and D or L forms follow the SMILES beside them. No end group written: not given here. Some results are limits rather than exact numbers.

The test relates to human umbilical vein endothelial cells (HUVEC). Conditions: for IC50: 48 h.

Usually IC50 stands for the concentration needed to halve the response being measured. Lower therefore signals inhibition by little substance. `CC[C@H](C)[C@H](NC(=O)[C@H](CCCCN)NC(=O)[C@@H](N)[C@@H](C)O)C(=O)N[C@@H](CS)C(=O)N[C@H](C(=O)NCC(=O)N[C@@H](CS)C(=O)N1CCC[C@H]1C(=O)N[C@@H](CCCNC(=N)N)C(=O)N[C@@H](CC(=O)O)C(=O)N[C@H](C(=O)N1CCC[C@H]1C(=O)N[C@H](C(=O)N[C@@H](CC(N)=O)C(=O)N[C@@H](CO)C(=O)N1CCC[C@H]1C(=O)O)[C@@H](C)O)[C@@H](C)CC)C(C)C` [SEQ ID NO:11, Thr-Lys-Ile-Cys-Val-Gly-Cys-Pro-Arg-Asp-Ile-Pro-Thr-Asn-Ser-Pro] (H-TKICVGCPRDIPTNSP-OH) showed an IC50 of 30 µM. On to “H-ETKKLGQSLDANAEVY-OH [SEQ ID NO:15, Glu-Thr-Lys-Lys-Leu-Gly-Gln-Ser-Leu-Asp-Ala-Asn-Ala-Glu-Val-Tyr]”, for which the IC50 is 42 µM. “H-LDANAEVYVVPWEKKI-OH [SEQ ID NO:16, Leu-Asp-Ala-Asn-Ala-Glu-Val-Tyr-Val-Val-Pro-Trp-Glu-Lys-Lys-Ile]” displayed an IC50 of 44 µM. On to “H-NNATFYFKIDNVKKAR-OH [SEQ ID NO:10, Asn-Asn-Ala-Thr-Phe-Tyr-Phe-Lys-Ile-Asp-Asn-Val-Lys-Lys-Ala-Arg]”, for which the IC50 was less than 0.8 µM.

With “H-TITKLNAENNATFYFK-OH [SEQ ID NO:9, Thr-Ile-Thr-Lys-Leu-Asn-Ala-Glu-Asn-Asn-Ala-Thr-Phe-Tyr-Phe-Lys]”, the IC50 was less than 0.8 µM. “YFIDFVARETTASKES-OH [SEQ ID NO:20, Tyr-Phe-Ile-Asp-Phe-Val-Ala-Arg-Glu-Thr-Thr-Ala-Ser-Lys-Glu-Ser]” came in with an IC50 of 28 µM. Further, the “Inhibition of endothelial cell proliferation (result in words)” value (HUVEC, bFGF-induced proliferation) is recorded as “inhibits endothelial cell proliferation”.
